Measurements from paper PMC5119973 (Cancer Medicine, 2016).

Assays:
KIT^V559D,T670I = biological target: T1, KIT^V559D,T670I (Homo sapiens, UniProt P10721, T670I/V559D); experiment: KINOMEscan active-site competitive binding assay
T1 construct: purchased DiscoveRx (KINOMEscan service)

RET^V804L = biological target: T2, RET^V804L (Homo sapiens, UniProt P07949, V804L); experiment: KINOMEscan active-site competitive binding assay
T2 construct: purchased DiscoveRx (KINOMEscan service)

[1] = Plasma pharmacokinetics in female NMRI Foxn1 nu/nu mice; conditions: for Calculated maximum free drug concentration: murine plasma
Experimental: Analyte concentrations were measured by high‐performance liquid chromatography using a Hewlett Packard 1100 Series system (Palo Alto, CA), with tandem mass spectrometric detection using an Applied Biosystems API 4000 (Thermo Fisher Scientific, Waltham, MA). The assay was validated according to the applicable guideline on method validation 11. The lower limit of quantitation for the assay was 2.00 μg/L, with a linear range of 2.00–20,000 μg/L using a sample volume of 100 μL.
Pharmacokinetic studies were performed in female NMRI Foxn1 nu/nu mice, supplied by Harlan‐Winkelmann GmbH (Borchen, Germany). […] Pharmacokinetic parameters, namely the AUC(0–24)ss and C max, were calculated from plasma concentrations using a noncompartmental analysis.

FGFR2 = biological target: T3, FGFR2 (Homo sapiens, UniProt P21802); experiment: FGFR phosphorylation assay in SNU‐16 cells (western blot); type: cell-based; conditions: SNU‐16/FGFR2 cells, 0.1% bovine serum albumin, read-out: Mean ± SD IC50
T3 construct: FGFR2, but not FGFR1, is overexpressed in the SNU‐16 cell line; endogenous in cells
Experimental: VEGFR2 assays were performed in murine fibroblasts (NIH‐3T3) in the presence of 0.1 mg/mL human serum albumin. […] Substrate phosphorylation was determined from total cell lysates by enzyme‐linked immunosorbent assay. In addition, an FGFR phosphorylation assay was performed using a human gastric carcinoma cell line (SNU‐16), with pFGFR assessed by western blot. The PDGFRA phosphorylation assay was performed by DiscoverRx using the DiscoverRx PathHunter cell line, modified to express PDGFRA. […] The assay signal was generated using a detection reagent cocktail and measured by chemoluminescence 13. Both the PDGFRA and FGFR assays were performed in the presence of 0.1 mg/mL BSA.

KIT [2] = biological target: T4, KIT (Homo sapiens, UniProt P10721); experiment: Cellular kinase phosphorylation assay, M07e/KIT; type: cell-based; parameters: human acute megakaryoblastic leukemia cell line (M07e; wt KIT assay); host or cells: M07e; conditions: M07e/KIT cells; without serum; read-out: Mean ± SD IC50
PDGFRB = biological target: T5, PDGFRB (Homo sapiens, UniProt P09619); experiment: KINOMEscan active-site competitive binding assay; conditions: slash = two separate measurements
T5 construct: purchased DiscoveRx

FLT3^R834Q = biological target: T6, FLT3^R834Q (Homo sapiens, UniProt P36888, R834Q); experiment: KINOMEscan active-site competitive binding assay
T6 construct: purchased DiscoveRx

KIT^V559D,V654A = biological target: T7, KIT^V559D,V654A (Homo sapiens, UniProt P10721, V559D/V654A); experiment: KINOMEscan active-site competitive binding assay
T7 construct: purchased DiscoveRx (KINOMEscan service)

KIT^L576P = biological target: T8, KIT^L576P (Homo sapiens, UniProt P10721, L576P); experiment: KINOMEscan active-site competitive binding assay
T8 construct: purchased DiscoveRx

FLT1 = biological target: T9, FLT1 (Homo sapiens, UniProt P17948); experiment: KINOMEscan active-site competitive binding assay; conditions: slash = two separate measurements
T9 construct: purchased DiscoveRx (KINOMEscan service)

HuLECs = experiment: VEGF‐C‐induced migration of HuLECs (scratch assay); type: cell-based, human; conditions: 100 nmol/L, 40 h
Experimental: A sterile pipette tip was then used to scratch the cell layers, and images were taken after continued incubation for 40 h.

FGFRs = experiment: KINOMEscan active-site competitive binding assay; conditions: range among family members, data not shown
KIT [3] = biological target: T4, KIT; experiment: KINOMEscan active-site competitive binding assay; parameters: purchased DiscoveRx (KINOMEscan service); conditions: slash = two separate measurements
TIE‐2 = TIE‐2 (Homo sapiens, UniProt Q02763); experiment: Cellular kinase phosphorylation assay, CHO/TIE2; type: cell-based; conditions: CHO/TIE2 cells; without serum; brackets = number of experiments; read-out: Mean ± SD IC50
VEGFR2 [4] = biological target: T10, VEGFR2 (Homo sapiens, UniProt P35968); experiment: KINOMEscan active-site competitive binding assay; parameters: purchased DiscoveRx; conditions: slash = two separate measurements
VEGFR2 [5] = biological target: T10, VEGFR2; experiment: VEGFR2 autophosphorylation in HuVECs stimulated with VEGF‐A (western blot); type: cell-based; parameters: VEGFR2 autophosphorylation in HuVECs; endogenous in cells; host or cells: HuVEC; conditions: VEGF‐A stimulation, 0.1% bovine serum albumin, estimated from western blots, read-out: Mean ± SD IC50
Experimental: Endothelial cell assays were performed as described previously 14. In brief, HuVECs and HuLECs were grown in EBM‐2 supplemented with growth factors (Lonza, Walkersville, MD). After serum starvation for 6 h in EBM‐2 containing 0.1% BSA, 2 × 10^5 cells were treated with various concentrations of each compound for 1 h before stimulation with VEGF‐A (50 ng/mL) or VEGF‐C (200 ng/mL) for 10 min. Cells were lysed, and total cell lysates were analyzed for inhibition of phosphorylation by western blot, using antibodies against total and phosphorylated VEGFR2 and VEGFR3, ERK1/2, and AKT. Signals were detected by […] luminescence (GE Healthcare Biosciences; Pittsburgh, PA).

BRAF = biological target: T11, BRAF (Homo sapiens, UniProt P15056); experiment: KINOMEscan active-site competitive binding assay; conditions: slash = two separate measurements
T11 construct: purchased DiscoveRx (KINOMEscan service)

KIT^A829P = biological target: T12, KIT^A829P (Homo sapiens, UniProt P10721, A829P); experiment: KINOMEscan active-site competitive binding assay
T12 construct: purchased DiscoveRx

KIT^D816H = biological target: T13, KIT^D816H (Homo sapiens, UniProt P10721, D816H); experiment: KINOMEscan active-site competitive binding assay
T13 construct: purchased DiscoveRx

RAF1 = biological target: T14, RAF1 (Homo sapiens, UniProt P04049); experiment: KINOMEscan active-site competitive binding assay; conditions: slash = two separate measurements
T14 construct: purchased DiscoveRx

RET = biological target: T15, RET (Homo sapiens, UniProt P07949); experiment: KINOMEscan active-site competitive binding assay; conditions: slash = two separate measurements
T15 construct: purchased DiscoveRx

FLT4 = biological target: T16, FLT4 (Homo sapiens, UniProt P35916); experiment: KINOMEscan active-site competitive binding assay; conditions: slash = two separate measurements
T16 construct: purchased DiscoveRx (KINOMEscan service)

[6] = M‐2‐treated mice, 10 mg/kg/day oral for 5 days
[7] = after M‐2 10 mg/kg/day oral for 5 days, total = sum of molar concentrations of regorafenib, M‐2, M‐5
[8] = after regorafenib 10 mg/kg/day oral for 5 days, total = sum of molar concentrations of regorafenib, M‐2, M‐5
[9] = after the labelled (administered) compound, 10 mg/kg/day oral for 5 days
[10] = analyte in plasma after M‐2 10 mg/kg/day oral for 5 days
[11] = analyte in plasma after M‐2 10 mg/kg/day oral for 5 days, AUC(0–24)ss
[12] = analyte in plasma after regorafenib 10 mg/kg/day oral for 5 days
[13] = analyte in plasma after regorafenib 10 mg/kg/day oral for 5 days, AUC(0–24)ss
[14] = regorafenib‐treated mice, 10 mg/kg/day oral for 5 days
[15] = analyte in plasma after M‐5 10 mg/kg/day oral for 5 days

T10 sequence (P35968 20-1356): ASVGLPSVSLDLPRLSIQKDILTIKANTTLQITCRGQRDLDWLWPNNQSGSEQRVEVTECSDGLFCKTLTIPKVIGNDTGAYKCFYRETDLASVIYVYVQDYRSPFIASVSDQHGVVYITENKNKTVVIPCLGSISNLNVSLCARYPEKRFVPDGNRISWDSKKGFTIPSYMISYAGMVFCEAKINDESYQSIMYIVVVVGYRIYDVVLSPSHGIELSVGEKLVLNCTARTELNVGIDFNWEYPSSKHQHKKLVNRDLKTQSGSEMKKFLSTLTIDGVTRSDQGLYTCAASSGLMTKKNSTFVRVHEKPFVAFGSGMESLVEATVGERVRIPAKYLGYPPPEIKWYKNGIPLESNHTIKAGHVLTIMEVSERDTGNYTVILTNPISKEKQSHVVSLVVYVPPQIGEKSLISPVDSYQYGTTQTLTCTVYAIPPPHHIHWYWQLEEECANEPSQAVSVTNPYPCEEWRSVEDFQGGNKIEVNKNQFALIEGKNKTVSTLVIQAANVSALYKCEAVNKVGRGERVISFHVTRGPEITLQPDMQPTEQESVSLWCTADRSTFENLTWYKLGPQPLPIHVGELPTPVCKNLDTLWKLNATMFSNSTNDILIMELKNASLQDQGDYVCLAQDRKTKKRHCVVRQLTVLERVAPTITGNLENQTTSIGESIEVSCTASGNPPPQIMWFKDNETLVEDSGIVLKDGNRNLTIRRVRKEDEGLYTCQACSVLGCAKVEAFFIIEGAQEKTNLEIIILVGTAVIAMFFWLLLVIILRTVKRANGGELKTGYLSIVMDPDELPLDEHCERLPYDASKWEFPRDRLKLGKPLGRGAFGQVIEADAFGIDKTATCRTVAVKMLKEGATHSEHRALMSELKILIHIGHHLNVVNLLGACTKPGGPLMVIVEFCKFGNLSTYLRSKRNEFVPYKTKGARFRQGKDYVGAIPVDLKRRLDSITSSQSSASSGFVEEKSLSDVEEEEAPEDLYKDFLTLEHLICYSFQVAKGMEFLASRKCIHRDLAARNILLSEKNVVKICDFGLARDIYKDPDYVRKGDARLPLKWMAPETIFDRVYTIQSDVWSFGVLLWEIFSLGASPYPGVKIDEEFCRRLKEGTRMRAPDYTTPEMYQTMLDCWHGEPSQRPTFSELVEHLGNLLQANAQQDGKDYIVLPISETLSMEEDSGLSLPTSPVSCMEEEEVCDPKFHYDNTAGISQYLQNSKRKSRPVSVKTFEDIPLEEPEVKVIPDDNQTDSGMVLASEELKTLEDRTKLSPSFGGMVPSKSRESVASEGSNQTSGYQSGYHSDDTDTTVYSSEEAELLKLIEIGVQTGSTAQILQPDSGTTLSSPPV
T4 sequence (P10721 26-976): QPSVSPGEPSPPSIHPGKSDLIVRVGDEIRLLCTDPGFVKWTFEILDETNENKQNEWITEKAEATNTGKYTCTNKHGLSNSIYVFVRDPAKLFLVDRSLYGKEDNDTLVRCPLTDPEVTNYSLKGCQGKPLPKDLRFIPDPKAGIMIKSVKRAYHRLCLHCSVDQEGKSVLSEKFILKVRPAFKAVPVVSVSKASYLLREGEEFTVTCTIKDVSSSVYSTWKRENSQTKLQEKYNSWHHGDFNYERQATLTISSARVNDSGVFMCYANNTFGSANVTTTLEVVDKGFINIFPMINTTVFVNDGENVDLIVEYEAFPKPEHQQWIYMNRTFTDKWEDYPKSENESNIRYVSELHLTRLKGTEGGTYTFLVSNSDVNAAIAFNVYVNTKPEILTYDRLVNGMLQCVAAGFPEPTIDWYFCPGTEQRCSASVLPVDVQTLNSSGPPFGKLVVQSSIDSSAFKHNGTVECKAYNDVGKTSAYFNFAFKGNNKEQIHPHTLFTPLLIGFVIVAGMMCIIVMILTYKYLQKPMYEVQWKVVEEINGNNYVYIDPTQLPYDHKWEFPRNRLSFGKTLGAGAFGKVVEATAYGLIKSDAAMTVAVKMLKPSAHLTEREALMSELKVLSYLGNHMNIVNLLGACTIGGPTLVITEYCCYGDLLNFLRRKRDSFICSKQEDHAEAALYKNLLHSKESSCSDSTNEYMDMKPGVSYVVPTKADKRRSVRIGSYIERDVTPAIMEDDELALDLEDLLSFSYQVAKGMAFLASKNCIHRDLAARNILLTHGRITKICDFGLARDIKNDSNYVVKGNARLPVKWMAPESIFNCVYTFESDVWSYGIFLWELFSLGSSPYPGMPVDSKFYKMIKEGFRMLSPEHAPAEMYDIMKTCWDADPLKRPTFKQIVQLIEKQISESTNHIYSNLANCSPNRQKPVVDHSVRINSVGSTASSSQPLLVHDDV
T11 sequence (P15056 whole entry): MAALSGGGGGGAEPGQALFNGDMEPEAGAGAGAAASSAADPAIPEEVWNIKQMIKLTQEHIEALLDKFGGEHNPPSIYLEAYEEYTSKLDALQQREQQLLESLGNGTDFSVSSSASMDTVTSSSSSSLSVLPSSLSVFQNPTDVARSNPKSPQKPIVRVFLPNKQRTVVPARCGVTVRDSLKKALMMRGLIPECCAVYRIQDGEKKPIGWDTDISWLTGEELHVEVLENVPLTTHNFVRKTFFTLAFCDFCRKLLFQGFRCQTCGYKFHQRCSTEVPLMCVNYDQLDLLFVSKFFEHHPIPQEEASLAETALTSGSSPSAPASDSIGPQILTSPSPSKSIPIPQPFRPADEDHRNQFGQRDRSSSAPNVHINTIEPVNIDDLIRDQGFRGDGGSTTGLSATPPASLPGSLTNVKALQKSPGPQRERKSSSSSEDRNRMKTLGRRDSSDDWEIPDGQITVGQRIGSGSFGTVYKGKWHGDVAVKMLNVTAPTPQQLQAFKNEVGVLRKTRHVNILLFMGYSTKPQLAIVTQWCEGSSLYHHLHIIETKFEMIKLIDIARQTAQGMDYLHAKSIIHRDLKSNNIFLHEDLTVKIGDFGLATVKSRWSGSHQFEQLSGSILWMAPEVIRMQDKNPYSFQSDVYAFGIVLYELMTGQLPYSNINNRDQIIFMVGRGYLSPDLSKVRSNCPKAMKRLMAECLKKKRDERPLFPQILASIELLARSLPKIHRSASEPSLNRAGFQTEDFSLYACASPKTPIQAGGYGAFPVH
T15 sequence (P07949 29-1114): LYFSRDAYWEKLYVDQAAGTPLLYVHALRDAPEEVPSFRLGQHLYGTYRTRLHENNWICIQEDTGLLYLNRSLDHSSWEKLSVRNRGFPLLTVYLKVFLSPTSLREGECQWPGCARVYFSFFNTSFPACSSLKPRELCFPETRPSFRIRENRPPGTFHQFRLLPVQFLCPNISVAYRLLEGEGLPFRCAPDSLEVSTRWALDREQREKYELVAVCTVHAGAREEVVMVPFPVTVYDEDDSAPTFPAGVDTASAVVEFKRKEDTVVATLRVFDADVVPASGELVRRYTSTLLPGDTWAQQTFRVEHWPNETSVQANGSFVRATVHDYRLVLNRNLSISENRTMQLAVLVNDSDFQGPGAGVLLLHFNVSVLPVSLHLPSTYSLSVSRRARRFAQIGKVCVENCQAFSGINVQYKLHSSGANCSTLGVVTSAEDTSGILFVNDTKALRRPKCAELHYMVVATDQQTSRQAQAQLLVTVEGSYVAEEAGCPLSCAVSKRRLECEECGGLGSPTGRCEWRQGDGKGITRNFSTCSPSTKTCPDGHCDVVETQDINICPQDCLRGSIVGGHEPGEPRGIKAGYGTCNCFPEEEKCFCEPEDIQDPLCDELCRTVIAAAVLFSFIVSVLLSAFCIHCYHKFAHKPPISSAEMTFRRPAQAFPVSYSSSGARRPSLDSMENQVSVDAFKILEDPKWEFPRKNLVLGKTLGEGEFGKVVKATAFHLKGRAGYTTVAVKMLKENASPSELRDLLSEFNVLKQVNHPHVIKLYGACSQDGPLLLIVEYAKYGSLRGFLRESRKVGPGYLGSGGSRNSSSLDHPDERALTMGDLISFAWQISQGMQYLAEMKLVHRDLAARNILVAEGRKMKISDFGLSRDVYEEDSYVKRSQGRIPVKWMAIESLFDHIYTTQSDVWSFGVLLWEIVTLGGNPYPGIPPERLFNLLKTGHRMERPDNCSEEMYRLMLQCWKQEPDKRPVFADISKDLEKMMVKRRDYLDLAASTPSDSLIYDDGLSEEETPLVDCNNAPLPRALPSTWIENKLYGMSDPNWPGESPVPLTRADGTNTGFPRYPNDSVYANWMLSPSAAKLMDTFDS
T8 sequence (P10721 26-976 L576P): as the sequence (P10721 26-976) above, with L551P counted along it
T1 sequence (P10721 26-976 V559D/T670I): as the sequence (P10721 26-976) above, with V534D, T645I counted along it
T12 sequence (P10721 26-976 A829P): as the sequence (P10721 26-976) above, with A804P counted along it
T7 sequence (P10721 26-976 V559D/V654A): as the sequence (P10721 26-976) above, with V534D, V629A counted along it
T3 sequence (P21802 22-822 isoform P21802-3 limits assumed): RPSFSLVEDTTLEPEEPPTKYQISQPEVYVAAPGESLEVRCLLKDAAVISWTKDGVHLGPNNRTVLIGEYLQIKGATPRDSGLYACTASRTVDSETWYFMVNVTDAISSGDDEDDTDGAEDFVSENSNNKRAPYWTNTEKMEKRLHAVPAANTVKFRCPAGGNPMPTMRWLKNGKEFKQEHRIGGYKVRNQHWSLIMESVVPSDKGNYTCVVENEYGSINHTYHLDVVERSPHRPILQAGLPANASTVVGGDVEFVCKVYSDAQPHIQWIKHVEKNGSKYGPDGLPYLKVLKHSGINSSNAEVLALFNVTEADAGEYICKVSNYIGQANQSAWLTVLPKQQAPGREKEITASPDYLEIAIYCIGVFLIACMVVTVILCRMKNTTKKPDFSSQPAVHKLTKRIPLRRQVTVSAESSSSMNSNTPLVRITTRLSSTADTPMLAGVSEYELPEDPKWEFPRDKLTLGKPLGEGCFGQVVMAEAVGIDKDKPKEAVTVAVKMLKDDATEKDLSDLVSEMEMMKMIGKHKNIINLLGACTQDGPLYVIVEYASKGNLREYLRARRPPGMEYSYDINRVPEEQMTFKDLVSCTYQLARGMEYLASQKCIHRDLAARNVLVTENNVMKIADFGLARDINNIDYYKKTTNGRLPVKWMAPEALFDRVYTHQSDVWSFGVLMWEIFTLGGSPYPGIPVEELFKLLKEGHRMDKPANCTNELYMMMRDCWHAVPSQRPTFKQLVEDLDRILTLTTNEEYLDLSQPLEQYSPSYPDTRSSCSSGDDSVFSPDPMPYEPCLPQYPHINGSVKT

Structure (SMILES) | Kd (KIT^V559D,T670I) | Kd (RET^V804L) | Share of total exposure (sum of total AUC(0–24)ss) [1, 6] | AUC (% of total) [1, 7] | AUC (% of total) [1, 8] | AUC [1, 10] | C max [1, 10] | Cmax [1, 10] | AUC [1, 11] | AUC [1, 12] | C max [1, 12] | Cmax [1, 12] | AUC [1, 13] | Calculated maximum free drug concentration [1] | Share of total exposure (sum of total AUC(0–24)ss) [1, 14] | IC50 (FGFR2) | IC50 (KIT [2]) | Kd (PDGFRB) | Kd (FLT3^R834Q) | Kd (KIT^V559D,V654A) | also measured
CNC(=O)c1cc(Oc2ccc(NC(=O)Nc3ccc(Cl)c(C(F)(F)F)c3)c(F)c2)cc[n+]1[O-] [M‐2] | 12 nM | 13 nM | 78% | 78% | 16% | 104.4 µmol·h/L | 6150 ng/mL | 12300 nM | 52,101 μg × h/L | 15.0 µmol·h/L | 753 ng/mL | 1500 nM | 7490 µg·h/L | 13.4 nmol/L | 16% | ~200 nM | 13 nM | 11 nM | 240 nM | 51 nM | Overall total C max for all three compounds [1, 9]: about 7500 μg/L; Sum of the total AUC(0–24)ss of regorafenib, M‐2 and M‐5 [1, 9]: 67,093 μg × h/L; Kd (KIT^L576P): 17 nM; Kd (FLT1): 23 nM; Inhibition of VEGF‐C‐induced migration (HuLECs): inhibited; Kd (FGFRs): 440 to 880 nM; Kd (KIT [3]): 9.8 nM; IC50 (TIE‐2): 66 ± 35 nM; Kd (VEGFR2 [4]): 29 nM; IC50 (VEGFR2 [5]): ~4 nM; Kd (BRAF): 24 nM; Kd (KIT^A829P): 19 nM; Kd (KIT^D816H): 490 nM; Kd (RAF1): 130 nM; Kd (RET): 7.6 nM; Kd (FLT4): 46 nM
NC(=O)c1cc(Oc2ccc(NC(=O)Nc3ccc(Cl)c(C(F)(F)F)c3)c(F)c2)cc[n+]1[O-] [M‐5] | 11 nM | 15 nM | 5% | 5% | 2% | 7.0 µmol·h/L | 342 ng/mL | 700 nM | 3391 µg·h/L | 1.6 µmol·h/L | 63 ng/mL | 100 nM | 772 µg·h/L | 0.5 nmol/L | 2% | ~1000 nM | 110 nM | 11 nM | 270 nM | 42 nM | AUC (% of total) ([1]; after M‐5 10 mg/kg/day oral for 5 days, only M‐5 determined): 100%; AUC [1, 15]: 108.9 µmol·h/L; Cmax [1, 15]: 10900 nM; AUC ([1]; analyte in plasma after M‐5 10 mg/kg/day oral for 5 days, AUC(0–24)ss): 52,796 μg × h/L; Kd (KIT^L576P): 9.1 nM; Kd (FLT1): 17 nM; Inhibition of VEGF‐C‐induced migration (HuLECs): inhibited; Kd (FGFRs): 790 to 1100 nM; Kd (KIT [3]): 5.8 nM; IC50 (TIE‐2): 180 nM; Kd (VEGFR2 [4]): 31 nM; IC50 (VEGFR2 [5]): ~16 nM; Kd (BRAF): 17 nM; Kd (KIT^A829P): 19 nM; Kd (KIT^D816H): 460 nM; Kd (RAF1): 66 nM; Kd (RET): 5.8 nM; Kd (FLT4): 40 nM
